From patent US20260166039A1 (SCHRÖDINGER, INC., priority 2022, published 2026) come the findings set out here.

Molecules are shown by their SMILES.

In one experiment the target is T1, Wee1 kinase domain (Homo sapiens, UniProt P30291).
T1 construct: Wee1 kinase domain was purchased from Carna (catalog #05-177); purchased Carna 05-177
T1 sequence (P30291 299-569 limits assumed): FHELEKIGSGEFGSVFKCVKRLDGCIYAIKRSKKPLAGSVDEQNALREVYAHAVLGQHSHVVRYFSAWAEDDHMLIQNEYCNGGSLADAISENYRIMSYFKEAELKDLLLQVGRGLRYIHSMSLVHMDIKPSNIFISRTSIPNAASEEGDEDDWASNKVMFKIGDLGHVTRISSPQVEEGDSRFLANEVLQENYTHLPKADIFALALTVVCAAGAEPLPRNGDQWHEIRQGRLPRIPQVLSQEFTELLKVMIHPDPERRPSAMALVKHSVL
Put plainly: Wee1 Kinase Biochemical Assay (ADP-Glo). The settings on record: 1 nM Wee1 enzyme, 15 uM ATP, 4 hours at 25° C. The procedure, abridged:
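Carna Wee1 kinase domain at 1 nM, with 15 uM ATP and 2 ng/mL poly(Lys,Tyr 4:1) substrate in 40 mM Tris-HCl, 20 mM MgCl2, 0.1 mg/mL BSA, 2 mM DTT, run 4 h at 25° C. ADP formation read by ADP-Glo luminescence. Percent inhibition normalised to DMSO and saturating-inhibitor controls.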
Background: ADP-Glo turns the ADP formed in a reaction into a luminescent signal.
Consider `CC1(C)C[C@H]2N(c3cccc(N=S(C)(C)=O)n3)c3nc(Nc4cncc(C(F)F)c4)ncc3[C@@]2(C)CO1` (single isomer, unassigned) [Example 815], for which the half-maximal inhibitory concentration (IC50) (as a rule, the concentration needed to halve the response being measured) was under 10 nM.

The compound `Cc1cc(Nc2ncc3c(n2)N(c2cccc(N=S(C)(C)=O)n2)C2CC(C)(C)OCC32C)cc(=O)n1C` (single isomer, unassigned) [Example 816] displayed an IC50 of under 10 nM.

For the compound `CC1(C)C[C@H]2N(c3cccc(N=S(C)(C)=O)n3)c3nc(Nc4cncnc4)ncc3[C@@]2(C)CO1` (single isomer, unassigned) [Example 817], the half-maximal inhibitory concentration (IC50) is under 10 nM.

In turn, `CC1(C)C[C@H]2N(c3cccc(N=S(C)(C)=O)n3)c3nc(Nc4cncc(C#N)c4)ncc3[C@@]2(C)CO1` (single isomer, unassigned) [Example 818] gave a half-inhibitory concentration (IC50) of under 10 nM.

With `CN(C)C1CCN(c2ccc(Nc3ncc4c(n3)N(c3ccccn3)[C@@H]3CC(C)(C)OC[C@]43C)cc2)CC1` (single isomer, unassigned) [Example 819], the IC50 was under 10 nM. `CN1CCCC12CCN(c1ccc(Nc3ncc4c(n3)N(c3ccccn3)[C@@H]3CC(C)(C)OC[C@]43C)cc1)CC2` (single isomer, unassigned) [Example 823] displayed an IC50 of under 10 nM. `CC1(C)C[C@H]2N(c3cccc(N=S(C)(C)=O)n3)c3nc(Nc4ccn(C5CCN(C6COC6)CC5)c(=O)c4)ncc3[C@@]2(C)CO1` (single isomer, unassigned) [Example 824] displayed a half-maximal inhibitory concentration (IC50) of under 10 nM. As for `COCCN1CCC(n2ccc(Nc3ncc4c(n3)N(c3cccc(N=S(C)(C)=O)n3)[C@@H]3CC(C)(C)OC[C@]43C)cc2=O)CC1` (single isomer, unassigned) [Example 825], the half-inhibitory concentration (IC50) is under 10 nM. `CN1CCN(c2ccc(Nc3ncc4c(n3)N(c3ccc(=O)n(C)n3)[C@@H]3CC(C)(C)OC[C@]43C)cc2)CC1` (single isomer, unassigned) [Example 826] showed an IC50 of under 10 nM. `CN1CCN(c2ccc(Nc3ncc4c(n3)N(c3cnccn3)[C@@H]3CC(C)(C)OC[C@]43C)cc2)CC1` (single isomer, unassigned) [Example 827] gave an IC50 of under 10 nM. In turn, `CN1CCN(c2ccc(Nc3ncc4c(n3)N(c3cccnn3)[C@@H]3CC(C)(C)OC[C@]43C)cc2)CC1` (single isomer, unassigned) [Example 828] displayed an IC50 of under 10 nM.

`CC(C)n1nc(N2c3nc(Nc4ccc(N5CCN(C)CC5)cc4)ncc3[C@@]3(C)COC(C)(C)C[C@@H]23)ccc1=O` (single isomer, unassigned) [Example 829]: the 50% inhibitory concentration (IC50) is under 10 nM. Compound `CCn1ccc(Nc2ncc3c(n2)N(c2cccc(N=S(C)(C)=O)n2)[C@@H]2CC(C)(C)OC[C@]32C)n1` (single isomer, unassigned) [Example 830] showed a half-inhibitory concentration (IC50) of under 10 nM. As for `CC1(C)C[C@H]2N(c3cccc(N=S(C)(C)=O)n3)c3nc(Nc4ccn(C5CC5)n4)ncc3[C@@]2(C)CO1` (single isomer, unassigned) [Example 831], the concentration for half-maximal inhibition (IC50) was under 10 nM. The same measure, in the same setting: with `CC(C)n1ccc(Nc2ncc3c(n2)N(c2cccc(N=S(C)(C)=O)n2)[C@@H]2CC(C)(C)OC[C@]32C)n1` (single isomer, unassigned) [Example 832] the figure was under 10 nM.

The experiment is the same for the next values; noted with them: class symbols; 1 nM Wee1 enzyme, 15 uM ATP, 4 hours at 25° C.
Regarding `CN[C@]1(C)CCc2ccc(N3c4nc(Nc5ccc(N6CCOCC6)cc5)ncc4[C@]4(C)COC(C)(C)C[C@H]34)nc21` (single isomer, unassigned) [Example 570], the IC50 is 100 to 1000 nM. On the same count and under the same terms, in the case of `CN[C@@]1(C)CCc2ccc(N3c4nc(Nc5ccc(N6CCOCC6)cc5)ncc4[C@@]4(C)COC(C)(C)C[C@@H]34)nc21` (single isomer, unassigned) [Example 571] it was under 10 nM; in that of `CNCc1cccc(N2c3nc(Nc4ccc(N5CCOCC5)cc4)ncc3[C@]3(C)COCC[C@H]23)n1` (single isomer, unassigned) [Example 573], 100 to 1000 nM. As for `CN1CCN(c2ccc(Nc3ncc4c(n3)N(c3cccc(N5CCOC5=O)n3)[C@H]3CC(C)(C)OC[C@@]43C)cc2)CC1` (single isomer, unassigned) [Example 576], the IC50 fell in the range of 100 to 1000 nM. With `CN[C@@H](C)c1cccc(N2c3nc(Nc4ccc(N5C[C@H]6C[C@@H]5CO6)cc4)ncc3[C@]3(C)COC(C)(C)C[C@H]23)n1` (single isomer, unassigned) [Example 578], the IC50 lay within 100 to 1000 nM.

In the case of `CN[C@@H](C)c1cccc(N2c3nc(Nc4ccc(N5C[C@@H]6C[C@H]5CO6)cc4)ncc3[C@]3(C)COC(C)(C)C[C@H]23)n1` (single isomer, unassigned) [Example 580], the IC50 lay within 100 to 1000 nM. Same read-out and setting: in the case of `C[C@H]1CCC(=O)N1c1cccc(N2c3nc(Nc4ccc(N5CCN(C)CC5)cc4)ncc3[C@]3(C)COC(C)(C)C[C@H]23)n1` (single isomer, unassigned) [Example 582] it was 100 to 1000 nM. The same measure, in the same setting: with `Cc1cc(Nc2ncc3c(n2)N(c2cccc(C(=O)N(C)C)n2)[C@H]2CC(C)(C)OC[C@@]32C)ccc1C1CCN(C)CC1` (single isomer, unassigned) [Example 584] the figure was 100 to 1000 nM; with `CN1CCN(c2ccc(Nc3ncc4c(n3)N(c3cccc(N5CCCC5=O)n3)[C@H]3CC(C)(C)OC[C@@]43C)cc2)CC1` (single isomer, unassigned) [Example 586], 10 to 100 nM. On the same count and under the same terms, in the case of `C[C@@H]1COC(=O)N1c1cccc(N2c3nc(Nc4ccc(N5CCN(C)CC5)cc4)ncc3[C@]3(C)COC(C)(C)C[C@H]23)n1` (single isomer, unassigned) [Example 588] it was 10 to 100 nM; in that of `CN1CCC(c2ccc(Nc3ncc4c(n3)N(c3cccc(N5CCOC5=O)n3)[C@H]3CC(C)(C)OC[C@@]43C)cc2)CC1` (single isomer, unassigned) [Example 590], 10 to 100 nM.

`CN1C[C@H]2C[C@@H]1CN2c1ccc(Nc2ncc3c(n2)N(c2cccc(N4CCOC4=O)n2)[C@H]2CC(C)(C)OC[C@@]32C)cc1` (single isomer, unassigned) [Example 592] yielded an IC50 of 10 to 100 nM. `CN1C[C@@H]2C[C@H]1CN2c1ccc(Nc2ncc3c(n2)N(c2cccc(N4CCOC4=O)n2)[C@H]2CC(C)(C)OC[C@@]32C)cc1` (single isomer, unassigned) [Example 594] had a half-inhibitory concentration (IC50) of 100 to 1000 nM. Take `Cc1cc(Nc2ncc3c(n2)N(c2cccc(N4CCOC4=O)n2)[C@H]2CC(C)(C)OC[C@@]32C)ccc1C1CCN(C)CC1` (single isomer, unassigned) [Example 596]: the 50% inhibitory concentration (IC50) was in the range of 10 to 100 nM.

`C[C@H]1CN(c2cccc(N3c4nc(Nc5ccc(N6CCN(C)CC6)cc5)ncc4[C@]4(C)COC(C)(C)C[C@H]34)n2)C(=O)O1` (single isomer, unassigned) [Example 598] displayed an IC50 of 100 to 1000 nM.

`CC1(C)C[C@@H]2N(c3cccc(N4CCOC4=O)n3)c3nc(Nc4ccc(N5CCNCC5)cc4)ncc3[C@]2(C)CO1` (single isomer, unassigned) [Example 600] gave an IC50 of 100 to 1000 nM. In turn, `CC1(C)C[C@H]2N(c3cccc(N4CCOC4=O)n3)c3nc(Nc4ccc(N5CCNCC5)cc4)ncc3[C@@]2(C)CO1` (single isomer, unassigned) [Example 601] yielded a half-inhibitory concentration (IC50) of under 10 nM. The same measure, in the same setting: in the case of `CN1CC[C@H](c2ccc(Nc3ncc4c(n3)N(c3cccc(N5CCOC5=O)n3)[C@H]3CC(C)(C)OC[C@@]43C)cc2)C1` (single isomer, unassigned) [Example 603] it was 10 to 100 nM; in that of `CN1CC[C@@H](c2ccc(Nc3ncc4c(n3)N(c3cccc(N5CCOC5=O)n3)[C@H]3CC(C)(C)OC[C@@]43C)cc2)C1` (single isomer, unassigned) [Example 604], 10 to 100 nM; in that of `CC1(C)C[C@@H]2N(c3cccc(N4CCOC4=O)n3)c3nc(Nc4ccc([C@@H]5CCNC5)cc4)ncc3[C@]2(C)CO1` (single isomer, unassigned) [Example 606], 10 to 100 nM. As for `CN1CC2CC1CN2c1ccc(Nc2ncc3c(n2)N(c2cccc(N=S(C)(C)=O)c2)C2CC(C)(C)OCC32C)cc1` (single isomer, unassigned) [Example 711], the concentration for half-maximal inhibition (IC50) lay in the range of 100 to 1000 nM.

`CNc1ncc2c(n1)N(c1cccc(N=S(C)(C)=O)n1)[C@@H]1CC(C)(C)OC[C@]21C` (single isomer, unassigned) [Example 723] registered an IC50 of 10 to 100 nM.

In turn, `CNCc1cccc(N2c3nc(NC(=O)C4CC4)ncc3[C@@]3(C)COC(C)(C)C[C@@H]23)n1` (single isomer, unassigned) [Example 762] showed an IC50 of 10 to 100 nM. On the same count and under the same terms, in the case of `CN1CC[C@H](OC(=O)Nc2ncc3c(n2)N(c2cccc(N=S(C)(C)=O)n2)[C@@H]2CC(C)(C)OC[C@]32C)C1` (single isomer, unassigned) [Example 773] it was 10 to 100 nM; in that of `CN1CC2(C1)CN(c1ccc(Nc3ncc4c(n3)N(c3cccc(N5C(=O)OCC5(C)C)n3)[C@@H]3CC(C)(C)OC[C@]43C)cc1)C2` (single isomer, unassigned) [Example 785], under 10 nM; in that of `CN1CC2(C1)CN(c1ccc(Nc3ncc4c(n3)N(c3cccc(N5C(=O)CCC5(C)C)n3)[C@@H]3CC(C)(C)OC[C@]43C)cc1)C2` (single isomer, unassigned) [Example 786], under 10 nM. `CC1(C)C[C@H]2N(c3cccc(N=S(C)(C)=O)n3)c3nc(Nc4ccn(C5CCC5)c(=O)c4)ncc3[C@@]2(C)CO1` (single isomer, unassigned) [Example 802]: the IC50 was under 10 nM.

In turn, `CN1C[C@@H]2CN(c3ccc(Nc4ncc5c(n4)N(c4ccccn4)[C@@H]4CC(C)(C)OC[C@]54C)cc3)C[C@@H]2C1` (single isomer, unassigned) [Example 803] had an IC50 of under 10 nM. Take `CN1CCC(n2ccc(Nc3ncc4c(n3)N(c3ccccn3)[C@@H]3CC(C)(C)OC[C@]43C)cc2=O)CC1` (single isomer, unassigned) [Example 806]: the IC50 is under 10 nM. `CN1CCN(c2ccc(Nc3ncc4c(n3)N(c3cccc(C(F)F)n3)[C@@H]3CC(C)(C)OC[C@]43C)cc2)CC1` (single isomer, unassigned) [Example 807] came in with an IC50 of under 10 nM.
